# Results as given in patent US8178677B2, “Hydroxyalkyl substituted imidazoquinolines” (3M Innovative Properties Company, priority 2005, dated 2012).
# Where two headings read alike, the source gives them in different places.
# Legend:
# [1] = system: interferon (α) (IFN-α) induction in human peripheral blood mononuclear cells (PBMC); assay: Cytokine induction in human cells (PBMC): IFN-α secreted into culture media, ELISA; assay type: cell-based; conditions: read-out: Minimum Effective Concentration (μM) IFN
# Source text: (§1) Cytokine Induction in Human Cells
# (§2) An in vitro human blood cell system is used to assess cytokine induction. Activity is based on the measurement of interferon (α) and tumor necrosis factor (α) (IFN-α and TNF-α, respectively) secreted into culture media as described by Testerman et. al. in “Cytokine Induction by the Immunomodulators Imiquimod and S-27609”, Journal of Leukocyte Biology, 58, 365-372 (September, 1995).
# (§3) Blood Cell Preparation for Culture
# (§4) Whole blood from healthy human donors is collected by venipuncture into vacutainer tubes or syringes containing EDTA. Peripheral blood mononuclear cells (PBMC) are separated from whole blood by density gradient centrifugation using HISTOPAQUE-1077 (Sigma, St. Louis, Mo.) or Ficoll-Paque Plus (Amersham Biosciences Piscataway, N.J.). Blood is diluted 1:1 with Dulbecco's Phosphate Buffered Saline (DPBS) or Hank's Balanced Salts Solution (HBSS). Alternately, whole blood is placed in Accuspin (Sigma) or LeucoSep (Greiner Bio-One, Inc., Longwood, Fla.) centrifuge frit tubes containing density gradient medium. The PBMC layer is collected and washed twice with DPBS or HBSS and re-suspended at 4×10^6 cells/mL in RPMI complete. The PBMC suspension is added to 96 well flat bottom sterile tissue culture plates containing an equal volume of RPMI complete media containing test compound.
# (§5) The compounds are solubilized in dimethyl sulfoxide (DMSO). The DMSO concentration should not exceed a final concentration of 1% for addition to the culture wells. The compounds are generally tested at concentrations ranging from 30-0.014 μM. Controls include cell samples with media only, cell samples with DMSO only (no compound), and cell samples with reference compound.
# (§6) The solution of test compound is added at 60 μM to the first well containing RPMI complete and serial 3 fold dilutions are made in the wells. The PBMC suspension is then added to the wells in an equal volume, bringing the test compound concentrations to the desired range (usually 30-0.014 μM). The final concentration of PBMC suspension is 2×10^6 cells/mL. The plates are covered with sterile plastic lids, mixed gently and then incubated for 18 to 24 hours at 37° C. in a 5% carbon dioxide atmosphere.
# (§7) Following incubation the plates are centrifuged for 10 minutes at 1000 rpm (approximately 200×g) at 4° C. The cell-free culture supernatant is removed and transferred to sterile polypropylene tubes. Samples are maintained at −30 to −70° C. until analysis. The samples are analyzed for IFN-α by ELISA and for TNF-α by IGEN/BioVeris Assay.
# (§8) Interferon (α) and Tumor Necrosis Factor (α) Analysis
# IFN-α concentration is determined with a human multi-subtype calorimetric sandwich ELISA (Catalog Number 41105) from PBL Biomedical Laboratories, Piscataway, N.J. Results are expressed in pg/mL.
# (§9) In total, the data output of the assay consists of concentration values of TNF-α and IFN-α (y-axis) as a function of compound concentration (x-axis).
# Analysis of the data has two steps. First, the greater of the mean DMSO (DMSO control wells) or the experimental background (usually 20 pg/mL for IFN-α and 40 pg/mL for TNF-α) is subtracted from each reading. If any negative values result from background subtraction, the reading is reported as “*”, and is noted as not reliably detectable. In subsequent calculations and statistics, “*”, is treated as a zero. Second, all background subtracted values are multiplied by a single adjustment ratio to decrease experiment to experiment variability. The adjustment ratio is the area of the reference compound in the new experiment divided by the expected area of the reference compound based on the past 61 experiments (unadjusted readings). […] The reference compound used is 2-[4-amino-2-ethoxymethyl-6,7,8,9-tetrahydro-α,α-dimethyl-1H-imidazo[4,5-c]quinolin-1-yl]ethanol hydrate (U.S. Pat. No. 5,352,784; Example 91) and the expected area is the sum of the median dose values from the past 61 experiments. […]
# [2] = system: tumor necrosis factor (α) (TNF-α) induction in human peripheral blood mononuclear cells (PBMC); assay: Cytokine induction in human cells (PBMC): TNF-α secreted into culture media, ORIGEN M-Series immunoassay; assay type: cell-based; conditions: for Maximal Response (pg/mL) TNF: background-subtracted; for minimal effective concentration: Homo sapiens, PBMC, read-out: Minimum Effective Concentration (μM) TNF
# Source text: as §1, §2, §3, §4, §5, §6, §7, §8
# The TNF-α concentration is determined by ORIGEN M-Series Immunoassay and read on an IGEN M-8 analyzer from BioVeris Corporation, formerly known as IGEN International, Gaithersburg, Md. The immunoassay uses a human TNF-α capture and detection antibody pair (Catalog Numbers AHC3419 and AHC3712) from Biosource International, Camarillo, Calif. Results are expressed in pg/mL.
# as §9
# Analysis of the data has two steps. First, the greater of the mean DMSO (DMSO control wells) or the experimental background (usually 20 pg/mL for IFN-α and 40 pg/mL for TNF-α) is subtracted from each reading. If any negative values result from background subtraction, the reading is reported as “*”, and is noted as not reliably detectable. In subsequent calculations and statistics, “*”, is treated as a zero. Second, all background subtracted values are multiplied by a single adjustment ratio to decrease experiment to experiment variability. The adjustment ratio is the area of the reference compound in the new experiment divided by the expected area of the reference compound based on the past 61 experiments (unadjusted readings). […]
# [3] = 18 to 24 hours incubation, tested 30-0.014 μM, lowest concentration inducing response over 20 pg/mL IFN-α, median of # experiments
# [4] = lowest tested concentration inducing IFN-α over 20 pg/mL, median where more than one experiment
# [5] = 18 to 24 hours incubation, tested 30-0.014 μM, lowest concentration inducing response over 40 pg/mL TNF-α, median of # experiments
# [6] = lowest tested concentration inducing TNF-α over 40 pg/mL, median where more than one experiment
Structure (SMILES),melting point [°C],"minimal effective concentration [1, 3] [µM]","minimal effective concentration [1, 4] [µM]","Maximal Response (pg/mL) TNF ([2]; 18 to 24 hours incubation, reference-adjusted maximal response of dose response curve, median of # experiments)","minimal effective concentration [2, 5] [µM]","minimal effective concentration [2, 6] [µM]","Maximal Response (pg/mL) TNF ([2]; maximal response in dose response curve, reference-adjusted, median where more than one experiment, * = below background of 40 pg/mL)"
"CC(C)(Cn1c(CCO)nc2c(N)nc3ccccc3c21)NS(C)(=O)=O [Example 6, N-{2-[4-Amino-2-(2-hydroxyethyl)-1H-imidazo[4,5-c]quinolin-1-yl]-1,1-dimethylethyl}methanesulfonamide]",209 to 212,1.11,1.11,* (TNF below experimental background of 40 pg/mL.),> 30,30,* (TNF below experimental background of 40 pg/mL.)
"Cc1ccc(S(=O)(=O)NCCCn2c(CCO)nc3c(N)nc4ccccc4c32)cc1 [Example 1, N-{3-[4-Amino-2-(2-hydroxyethyl)-1H-imidazo[4,5-c]quinolin-1-yl]propyl}-4-methylbenzenesulfonamide]",231 to 232,–,0.37,–,–,10,–
"CC(C)(Cn1c(CO)nc2c(N)nc3ccccc3c21)NS(C)(=O)=O [Example 7, N-[2-(4-Amino-2-hydroxymethyl-1H-imidazo[4,5-c]quinolin-1-yl)-1,1-dimethylethyl]methanesulfonamide]",262 to 265,3.33,3.33,–,30,30,–
"CC(C)NC(=O)NCCn1c(CO)nc2c(N)nc3ccccc3c21 [Example 144, N-{2-[4-amino-2-(hydroxymethyl)-1H-imidazo[4,5-c]quinolin-1-yl]ethyl}-N′-isopropylurea]",> 240,–,0.37,–,–,3.33,–

# More lines, main results first:
melting point [°C],Structure (SMILES),"minimal effective concentration [1, 3] [µM]","minimal effective concentration [1, 4] [µM]","Maximal Response (pg/mL) TNF ([2]; 18 to 24 hours incubation, reference-adjusted maximal response of dose response curve, median of # experiments)","minimal effective concentration [2, 5] [µM]","minimal effective concentration [2, 6] [µM]","Maximal Response (pg/mL) TNF ([2]; maximal response in dose response curve, reference-adjusted, median where more than one experiment, * = below background of 40 pg/mL)"
230 to 232,"CC(C)(Cn1c(CO)nc2c(N)nc3ccccc3c21)CS(C)(=O)=O [Example 143, {4-Amino-1-[2,2-dimethyl-3-(methylsulfonyl)propyl]-1H-imidazo[4,5-c]quinolin-2-yl}methanol]",–,1.11,–,–,30,–
248 to 250,"CC(C)(N)Cn1c(CO)nc2c(N)nc3ccccc3c21 [Example 4, 1-(2-Amino-2-methylpropyl)-2-hydroxymethyl-1H-imidazo[4,5-c]quinolin-4-amine]",–,0.37,–,–,3.33,–
